Results taken from US20160158252A1, “PHARMACEUTICAL COMPOSITION AND USE OF DIETHYL (2-CYANOETHYL)PHOSPHONATE” (Olatec Therapeutics LLC, priority 2013, published 2016).
Where two headings read alike, the source gives them in different places.

Key:
[1] = tested on: arachidonic acid-induced ear swelling; test: Arachidonic acid-induced ear swelling in mice (intraperitoneal administration); assay type: in vivo; details: measured at 90 minutes
Description: The protocols of this experiment were similar to Example 3, except the following differences. Test substance diethyl (2-cyanoethyl) phosphonate was dissolved in PBS to generate 1, 3 and 10 mg/mL testing solutions. Vehicle (PBS) at 10 mL/kg and diethyl (2-cyanoethyl) phosphonate at 10 mL/kg (10, 30, and 100 mg/kg) were administered intraperitoneally at 1 hour, and again 15 minutes before arachidonic acid (0.5 mg/ear) challenge. The positive control dexamethasone was administered orally 3 hours before arachidonic acid.
An ANOVA was done, and if p<0.05, a Dunnett's t test was employed to calculate significant difference between vehicle control and treated groups. Significance is set at P<0.05 level.
(§1) An ANOVA was done, and if p<0.05, a Dunnett's t test was employed to calculate significant difference between vehicle control and test compound treated groups. A pairwise Student's t test was used to calculate differences between the dexamethasone group and the control group. Significance is set at P<0.05 level.

[2] = tested on: tail flick reaction to heat (49° C. water bath); test: Tail flick test in mice (oral administration); assay type: in vivo
Description: Tail flick test is a test of the pain response in animals. Tail flick test is used in basic pain research and to measure the effectiveness of analgesics, by observing the tail flick reaction to heat in an animal. This test assesses the nociceptive response to a local pain stimulus, and the ability of a drug to inhibit this response.
Vehicle control (water) and test compound diethyl (2-cyanoethyl) phosphonate in water were administered by oral gavage to mice with a volume of 10 mL/kg, twice, at 60 and 15 minutes before the first tail flick measurement. The test compound was administered at a dosage of 10, 30, or 100 mg/kg in water. The positive control compound morphine was administered by subcutaneous injection at 8 mg/kg with a volume of 8 mL/kg, at 15 minutes before the first tail flick measurement. Each group had 10 mice.
The response of mice to heat stimulus was evaluated by measuring the time of tail-flick or tail-flick latency from 49° C. water bath. Briefly, the animal was placed in a restrainer with its tail hanging down. Approximately 2 inches of the tail was immersed in a beaker of water at 38±1° C. for about 30 seconds, and this was done twice to acclimate the animal to the procedure.
Subsequently, approximately 2 inches of the tail was immersed in a beaker of water at 49±1° C., at which point a timer was started.
Tail flick measurements were made 60, 80, 100, and 120 minutes post administration of the first dosage of test compound. An ANOVA was done, and if p<0.05, a Dunnett's t test was employed to calculate significant difference between vehicle control and test compound treated groups. A pairwise Student's t test was used to calculate differences between the morphine group and the control group. […] Analysis with p-values <0.05 is considered significant.

[3] = tested on: formalin-induced paw licking; details: for Licks per min (Between 0-10 min) / Licks per min (Between 10-40 min): 375 mM topical BID; for Licks per min (Between 0-10 min): early phase, vehicle 4.4; for Licks per min (Between 10-40 min): late phase, vehicle 1.7
Description: The test compound diethyl (2-cyanoethyl) phosphonate (375 mM in vehicle, n=16) and vehicle control (acetone:ethanol 1:1, n=16) were administered topically by submerging the mouse left hind paw in the respective solution for about 30 seconds. The paw was then withdrawn and wiped with tissue to avoid excess dermal drying.
Positive control morphine was administered by subcutaneous injection at 4 mg/kg with a volume of 4 mL/kg to mice (n=16).
Morphine was subcutaneously administered once 15 minutes before formalin injection. The test compounds and vehicle control were topically administered twice (BID), at 90 and 15 minutes before formalin injection.
Following formalin injection, animals were placed in individual cages, and manually observed for 60 minutes. The licking events were recorded in five minute intervals continuously for a total of 40 minutes.
The number of licking events per minute was calculated between 0-10 minutes and 10-40 minutes for vehicle, positive control, and test compound. A two-sample t-test was done to compare the vehicle group with the test compound group. Significance is set at P<0.05 level. The same statistics were done comparing the vehicle group with the positive control group.

[4] = tested on: formalin-induced paw licking; test: Formalin test in mice (oral administration); assay type: in vivo, mice (male CD-1); details: for Licks per min (Between 0-10 min): early phase, vehicle 3.3; for Licks per min (Between 10-40 min): late phase, vehicle 1.4
Description: Formalin test is a model of continuous pain resulting from formalin-induced tissue injury. Nociceptive and inflammatory pain was induced by injection of a dilute formalin solution into the paw, resulting in nocifensive behavior including paw flinching. The formalin model encompasses inflammatory, neurogenic, and central mechanism of pain. The early phase of pain (from 0 to about 10 minutes) is due to nociceptive mechanism and the late phase of pain (from 10-40 minutes) is due to a combination of inflammatory pain and nociceptive mechanism. Pain behavior is assessed using manual paw licking measurements. The endpoints of the study are the number of paw licking events. (Hunskaar et al., Pain, 30:103-114, 1987; Li et al., Molecular Pain, 6:11, 2010)
Male CD-1 mice, about 34 g, were used in the study. Mice had free access to food and water, were maintained on a 12 hour:12 hour light/dark schedule for the entire duration of the study, and housed in soft bedding five per cage.
Immediately prior to testing (at time 0), mice were restrained in a cloth and injected with 20 μL of a 5% formalin solution, subcutaneously into the dorsal surface of the left hind paw. Vehicle control (n=10, water) and test compound diethyl (2-cyanoethyl) phosphonate (n=9, in water) were administered by oral gavage with a volume of 10 mL/kg to mice. The amounts of test compound were 10, 30, or 100 mg/kg per dose.
Positive control morphine was administered by subcutaneous injection at 4 mg/kg with a volume of 4 mL/kg to mice (n=10). […] The purpose of morphine is not to serve as a comparison with the test compound.
Morphine was subcutaneously administered once 15 minutes before formalin injection. The test compounds and vehicle control were orally administered twice (BID), at 60 and 15 minutes before formalin injection at time zero.
Following formalin injection, animals were placed in individual cages, and manually observed for 60 minutes. The licking events were recorded in five minute intervals continuously for a total of 60 minutes.
as §1, with “The number of licking events per minute was calculated between 0-10 minutes and 10-40 minutes for vehicle, positive control, and test compound. An” for “An”, “morphine” for “dexamethasone”

[5] = tested on: IL-6, TNFα, IFNγ, MIP-2 and RANTES; test: Pro-inflammatory cytokine release in rat challenged in vivo with lipopolysaccharide; details: given orally to rat, LPS challenge in vivo
[6] = tested on: arachidonic acid-induced ear swelling; test: Topical arachidonic acid-induced ear swelling model in mice (topical administration); assay type: in vivo, mice (male ICR); details: 90 minutes after arachidonic acid
Description: The test compound, indomethacin (positive control), and vehicle (acetone:ethanol/1:1) were evaluated for anti-inflammatory activity in a topical arachidonic acid-induced ear swelling model in mice.
Male ICR mice weighing 22±2 g were used and randomly divided; the test compound and vehicle control had 10 mice, and indomethacin had 5 mice. Arachidonic Acid (0.5 mg in 20 μl of acetone:ethanol/1:1) was applied topically to the anterior and posterior surfaces of the right ear of each mice. Test substances (in vehicle) and vehicle, as listed in Table 3 were similarly applied 30 min before and 15 min after arachidonic acid application. The thickness of the right ear and the left ear was measured and the difference calculated as an indication of the inflammation in the right ear. Ear swelling was measured by a Dyer model micrometer gauge at 60 and 90 minutes after arachidonic acid application as an index of inflammation. Percent inhibition was calculated according to the formula: Ic−It/Ic×100, where Ic and It refers to increase of ear thickness (mm) in control and treated mice, respectively. An ANOVA was done, and if p<0.05, a Dunnett's t test was employed to calculate significant difference between vehicle control and test compound treated groups. A pairwise Student's t test was used to calculate differences between the indomethacin group and the control group. Significance is set at P<0.05 level.

[7] = 100 mg/kg oral BID, listed as test compound

C[C@@H]1C[C@H]2[C@@H]3CCC4=CC(=O)C=C[C@]4(C)[C@@]3(F)[C@@H](O)C[C@]2(C)[C@@]1(O)C(=O)CO [Dexamethasone, dexamethasone, reference compound]
% Inhibition of ear swelling ([1]; 0.3 mg/kg orally 3 hours before arachidonic acid): 29%

CCOP(=O)(CCC#N)OCC [Diethyl (2-cyanoethyl) phosphonate, Diethyl (2-cyanoethyl)phosphonate]
Tail flick latency vs vehicle-treated mice ([2]; 30 mg/kg oral, twice, 60, 80, 100, 120 minutes): statistically significant tail flick latency at 60 and 80 minutes
Tail flick latency vs vehicle-treated mice ([2]; 100 mg/kg oral, twice, 60, 80, 100, 120 minutes): statistically significant tail flick latency at 60 and 100 minutes
Licks per min (Between 0-10 min) [3]: 4.0 licks per min
Licks per min (Between 0-10 min) ([3]; listed as test compound): no statistically significant difference
Licks per min (Between 10-40 min) [3]: 1.1 licks per min
Licks per min (Between 10-40 min) ([3]; listed as test compound): statistically significant (p<0.05) reduction
Paw licking events after topical application alone without injection of formalin ([3]; 375 mM topical, no formalin): negligible number of paw licking events
Licking events, difference from control ([4]; 10 mg/kg oral BID): did not show a statically significant difference from control
Licking events, difference from control ([4]; 30 mg/kg oral BID): did not show a statically significant difference from control
Efficacy after 40 minutes (licking events) ([4]; 100 mg/kg oral BID): did not last after 40 minutes
Licks per min (Between 0-10 min) ([4]; 100 mg/kg oral BID): 3.1 licks per min
Licks per min (Between 0-10 min) [4, 7]: no statistically significant difference
Licks per min (Between 10-40 min) ([4]; 100 mg/kg oral BID): 0.59 licks per min
Licks per min (Between 10-40 min) [4, 7]: statistically significant (p<0.05) reduction
Pro-inflammatory cytokine release (IL-6, TNFα, IFNγ, MIP-2 and RANTES) [5]: effective in inhibiting pro-inflammatory cytokine release
% Inhibition of ear swelling ([6]; 375 mM in acetone:ethanol (1:1), 20 μL (1.4 mg/ear) applied twice topically): 55%
% Inhibition of ear swelling ([6]; 375 mM in acetone:ethanol (1:1), 20 μL (1.4 mg/ear) applied twice topically, listed as active compound): anti-inflammatory
% Inhibition of ear swelling ([6]; 375 mM in acetone:ethanol (1:1), 20 μL (1.4 mg/ear) applied twice topically, listed as tested compound): 55%
% Inhibition of ear swelling ([1]; 10 mg/kg intraperitoneally, twice): −8%
% Inhibition of ear swelling ([1]; 30 mg/kg intraperitoneally, twice): 0%
% Inhibition of ear swelling ([1]; 100 mg/kg intraperitoneally, twice): 34%
% Inhibition of ear swelling ([1]; 100 mg/kg intraperitoneally, twice, listed as tested compound): 37%

COc1ccc2c(c1)c(CC(=O)O)c(C)n2C(=O)c1ccc(Cl)cc1 [Indomethacin, indomethacin, reference compound]
% Inhibition of ear swelling ([6]; 14 mM, 20 μL (0.1 mg/ear) applied twice topically): 58%

CN1CC[C@]23c4c5ccc(O)c4O[C@H]2[C@@H](O)C=C[C@H]3[C@H]1C5 [Morphine, morphine, reference compound]
Tail flick latency vs vehicle-treated mice ([2]; mouse, in vivo): statistically significant tail flick latency at all measured time points
Efficacy after 40 minutes (licking events) ([4]; mouse, in vivo): did not last after 40 minutes
